Results published in US10150737B2, “Compounds for controlling arthropods” (priority 2013, dated 2018).

Experiments:
[1] = logP determination by HPLC on a reversed-phase column (C18); type: physicochemical; conditions: for log P: HPLC-MS; for logP: HPLC, C18 reversed phase, acetonitrile/water with formic acid, EEC Directive 79/831 Annex V.A8; for logP^a): HPLC-MS method a)
Phaedon cochleariae = Phaedon cochleariae - spray test; type: in vivo; conditions: larvae on Chinese cabbage leaf discs, after 7 days
Method: (§1) Solvent: 78.0 parts by weight of acetone and 1.5 parts by weight of dimethylformamide
(§2) Emulsifier: alkylaryl polyglycol ether
(§3) To produce an appropriate active ingredient formulation, 1 part by weight of active ingredient is dissolved using the specified parts by weight of solvent and made up with water containing an emulsifier concentration of 1000 ppm until the desired concentration is attained. To produce further test concentrations, the preparation is diluted with emulsifier-containing water.
Discs of Chinese cabbage leaves (Brassica pekinensis) are sprayed with an active ingredient formulation of the desired concentration and, after drying, populated with larvae of the mustard beetle (Phaedon cochleariae).
After 7 days, efficacy in % is determined. 100% means that all the beetle larvae have been killed; 0% means that no beetle larvae have been killed.

Tetranychus urticae = Tetranychus urticae - spray test, OP-resistant; type: in vivo; conditions: bean leaf discs, after 6 days
Method: as §1, §2, §3
Discs of bean leaves (Phaseolus vulgaris) infested by all stages of the greenhouse red spider mite (Tetranychus urticae) are sprayed with an active ingredient formulation of the desired concentration.
After 6 days, efficacy in % is determined. 100% means that all the spider mites have been killed; 0% means that none of the spider mites have been killed.

Spodoptera frugiperda = Spodoptera frugiperda - spray test; type: in vivo; conditions: caterpillars on maize leaf discs, after 7 days
Method: as §1, §2, §3
Leaf discs of maize (Zea mays) are sprayed with an active ingredient formulation of the desired concentration and, after drying, populated with caterpillars of the armyworm (Spodoptera frugiperda).
After 7 days, efficacy in % is determined. 100% means that all the caterpillars have been killed; 0% means that no caterpillars have been killed.

Boophilus microplus = Boophilus microplus - injection test; type: in vivo; conditions: application rate 20 μg/animal, injection into engorged adult female ticks, after 7 days; for pest or weed control at 0.02 mg: Rhipicephalus microplus, 168 h, read-out: efficacy (laying of fertile eggs)
Method: (§4) Solvent: dimethyl sulphoxide
To produce an appropriate active ingredient formulation, 10 mg of active ingredient are mixed with 0.5 ml of solvent and the concentrate is diluted with solvent to the desired concentration.
1 μl of the active ingredient solution is injected into the abdomen of 5 engorged adult female cattle ticks (Boophilus microplus). The animals are transferred into dishes and kept in a climate-controlled room.
Efficacy is assessed after 7 days by laying of fertile eggs. Eggs which are not visibly fertile are stored in a climate-controlled cabinet until the larvae hatch after about 42 days. An efficacy of 100% means that none of the ticks has laid any fertile eggs; 0% means that all the eggs are fertile.

Ctenocephalides felis = Ctenocephalides felis - oral test; type: in vivo; conditions: application rate 100 ppm in citrated cattle blood; after 2 days
Method: as §4
For the purpose of producing an appropriate active ingredient formulation, 10 mg of active ingredient are mixed with 0.5 ml of dimethyl sulphoxide. Dilution with citrated cattle blood gives the desired concentration.
About 20 unfed adult cat fleas (Ctenocephalides felis) are placed into a chamber which is closed at the top and bottom with gauze. A metal cylinder whose bottom end is closed with parafilm is placed onto the chamber. The cylinder contains the blood/active ingredient preparation, which can be imbibed by the fleas through the parafilm membrane.
After 2 days, the kill in % is determined. 100% means that all of the fleas have been killed; 0% means that none of the fleas have been killed.

[2] = reversed-phase column (C18), Table I-T3

| SMILES | log P [1, 2] | efficacy (Phaedon cochleariae; application rate 100 g/ha) [%] | efficacy (Tetranychus urticae; application rate 100 g/ha) [%] | efficacy (Spodoptera frugiperda; application rate 100 g/ha) [%] | also measured |
| --- | --- | --- | --- | --- | --- |
| CCS(=O)(=O)c1cc(C(F)(F)F)cc(C#N)c1-n1cc(-c2ccc(Cl)c(C(=O)NC3(C#N)CC3)c2)cn1 [I-T3-190] | 2.9 | 100 | 100 | – | – |
| O=C(NC1CC1)c1cc(-c2ccn(-c3c(Cl)cc(C(F)(C(F)(F)F)C(F)(F)F)cc3Cl)c2)cnc1Cl [I-T46-4] | – | 100 | 100 | 100 | logP [1]: 4.5 |
| CCSc1cc(C(F)(F)F)cc(C#N)c1-n1cc(-c2ccc(Cl)c(C(=O)NC3(C#N)CC3)c2)cn1 [I-T3-177] | 3.4 | 100 | 100 | 83 | – |
| CCS(=O)(=O)c1cc(C(F)(F)F)cc(Cl)c1-n1cc(-c2ccc(Cl)c(C(=O)NC3(C#N)CC3)c2)cn1 [I-T3-183] | 3.1 | 100 | 100 | – | – |
| CCS(=O)(=O)c1cc(C(F)(F)F)cc(C#N)c1-n1cc(-c2ccc(Cl)c(C(=O)NC3CC3)c2)cn1 [I-T3-180] | 2.8 | 100 | 100 | – | – |
| O=C(NC1CC1)c1cc(-c2cnn(-c3c(Cl)cc(C(O)(C(F)(F)F)C(F)(F)F)cc3Cl)c2)cnc1Cl [I-T3-221] | 3.0 | 100 | 100 | – | – |
| N#CC1(NC(=O)c2cccc(-c3cnn(-c4c(Cl)cc(C(F)(C(F)(F)F)C(F)(F)F)cc4Cl)c3)c2F)CC1 [I-T3-22] | – | – | – | – | efficacy (Spodoptera frugiperda; application rate 500 g/ha): 100%; logP^a) [1]: 4.1; logP^a) [1, 2]: 4.1; efficacy (Phaedon cochleariae; application rate 500 g/ha): 100%; efficacy (Tetranychus urticae; application rate 500 g/ha): 100% |
| COc1cc(C(F)(F)F)cc(F)c1-n1cc(-c2ccc(Cl)c(C(=O)NC3CC3)c2)cn1 [I-T3-50, 2-chloro-N-cyclopropyl-5-[1-[2-fluoro-6-methoxy-4-(trifluoromethyl)phenyl]pyrazol-4-yl]benzamide] | – | – | – | – | pest or weed control at 0.02 mg (Boophilus microplus): 100% |
| O=C(NC1CC1)c1cc(-c2cnn(-c3c(Cl)cc(C(F)(C(F)(F)F)C(F)(F)F)cc3Cl)c2)cnc1N1CCCC1 [I-T3-135] | 4.3 | – | – | – | logP^a) ([1]; reversed-phase column (C18)): 4.3; efficacy (kill) (Ctenocephalides felis): 100% |
| N#CC1(NC(=O)c2cc(-c3ccn(-c4c(Cl)cc(C(F)(C(F)(F)F)C(F)(F)F)cc4Cl)c3)cnc2Cl)CC1 [I-T46-5] | – | 100 | 100 | 100 | logP [1]: 4.4 |
| CCSc1cc(C(F)(C(F)(F)F)C(F)(F)F)cc(SCC)c1-n1cc(-c2ccc(Cl)c(C(=O)NC3(C#N)CC3)c2)cn1 [I-T3-191] | 4.7 | 100 | – | 100 | – |
| CCS(=O)(=O)c1cc(C(F)(C(F)(F)F)C(F)(F)F)cc(S(=O)(=O)CC)c1-n1cc(-c2ccc(Cl)c(C(=O)NC3(C#N)CC3)c2)cn1 [I-T3-198] | 3.7 | 100 | – | 100 | – |
| Cc1cc(C(F)(C(F)(F)F)C(F)(F)F)cc(C)c1-n1cc(-c2cc(C(=O)NC3(C#N)CC3)ccc2F)cn1 [I-T3-19] | – | – | – | – | efficacy (laying of fertile eggs) (Boophilus microplus): 100%; efficacy (Spodoptera frugiperda; application rate 500 g/ha): 100%; logP^a) [1]: 4.3; logP^a) [1, 2]: 4.3; efficacy (Phaedon cochleariae; application rate 500 g/ha): 100%; efficacy (kill) (Ctenocephalides felis): 95% |
| N#CC1(NC(=O)c2cc(-c3cnn(-c4c(Cl)cc(C(O)(C(F)(F)F)C(F)(F)F)cc4Cl)c3)cnc2Cl)CC1 [I-T3-222] | 3.0 | 100 | 100 | – | – |
| O=C(NC1CC1)c1cc(-c2cnn(-c3ncc(C(F)(C(F)(F)F)C(F)(F)F)cc3Cl)c2)ccc1Cl [I-T3-152] | 4.1 | 100 | – | 100 | logP^a) ([1]; reversed-phase column (C18)): 4.1 |
| CC[S+]([O-])c1cc(C(F)(C(F)(F)F)C(F)(F)F)cc(Cl)c1-n1cc(-c2ccc(Cl)c(C(=O)NC3(C#N)CC3)c2)cn1 (centres unmarked) [I-T3-195] | 3.8 | 100 | 90 | – | – |
| CN(C(=O)c1cc(-c2ccn(-c3c(Cl)cc(C(F)(C(F)(F)F)C(F)(F)F)cc3Cl)c2)cnc1Cl)C1(C#N)CC1 [I-T46-6] | – | 100 | 100 | 100 | logP [1]: 4.8 |
| CCSc1cc(C(F)(C(F)(F)F)C(F)(F)F)cc(Cl)c1-n1cc(-c2ccc(Cl)c(C(=O)NC3(C#N)CC3)c2)cn1 [I-T3-192] | 4.5 | 100 | 100 | 100 | – |
| CN(C(=O)c1cc(-c2ccn(-c3c(Cl)cc(C(F)(C(F)(F)F)C(F)(F)F)cc3Cl)c2)cnc1Cl)C1CC1 [I-T46-3] | – | 100 | – | 100 | logP [1]: 5.0 |
| Cc1cc(C(F)(C(F)(F)F)C(F)(F)F)cc(C)c1-c1ccn(-c2ccc(Cl)c(C(=O)NC3(C#N)CC3)c2)n1 [I-T2-2] | – | 100 | – | 100 | efficacy (laying of fertile eggs) (Boophilus microplus): 100%; logP^a) [1]: 4.8 |
| CCSc1cc(C(F)(F)F)cc(Cl)c1-n1cc(-c2ccc(Cl)c(C(=O)NC3CC3)c2)cn1 [I-T3-172] | 3.9 | 100 | 90 | – | – |
| Cc1cc(C(F)(C(F)(F)F)C(F)(F)F)cc(C)c1-n1cc(-c2cnc(C3CC3)c(C(=O)N(C)C3CC3)c2)cn1 [I-T3-142] | 4.6 | – | – | – | efficacy (laying of fertile eggs) (Boophilus microplus): 100%; logP^a) ([1]; reversed-phase column (C18)): 4.6 |
| Cc1cc(C(F)(C(F)(F)F)C(F)(F)F)cc(C)c1-c1ccn(-c2ccc(Cl)c(C(=O)NC3CC3)c2)n1 [I-T2-1, 2-chloro-N-cyclopropyl-5-[3-[2,6-dimethyl-4-[1,2,2,2-tetrafluoro-1-(trifluoromethyl)ethyl]phenyl]pyrazol-1-yl]benzamide] | – | – | – | – | pest or weed control at 0.02 mg (Boophilus microplus): 100% |
| CN(C(=O)c1cc(-c2cnn(-c3c(Cl)cc(C(O)(C(F)(F)F)C(F)(F)F)cc3Cl)c2)cnc1Cl)C1(C#N)CC1 [I-T3-223] | 3.3 | 100 | 100 | – | – |
| Cc1cc(C(F)(C(F)(F)F)C(F)(F)F)cc(C(F)(F)F)c1-n1cc(-c2cnc(Cl)c(C(=O)NCC3(C#N)CC3)c2)cn1 [I-T3-197] | 4.0 | 100 | 100 | 100 | – |
| N#CC1(NC(=O)c2cc(-c3cnn(-c4c(Cl)cc(C(F)(F)F)cc4[N+](=O)[O-])c3)ccc2Cl)CC1 [I-T3-169] | 3.2 | 100 | 100 | 83 | – |
| Cc1cc(C(F)(C(F)(F)F)C(F)(F)F)cc(C)c1-n1cc(-c2cc(C(=O)NC3CC3)c(F)cc2Cl)cn1 [I-T3-11] | – | – | – | – | efficacy (laying of fertile eggs) (Boophilus microplus): 100%; logP^a) [1]: 4.9; logP^a) [1, 2]: 4.9; efficacy (kill) (Ctenocephalides felis): 95% |
| CC[S+]([O-])c1cc(C(F)(F)F)cc(C#N)c1-n1cc(-c2ccc(Cl)c(C(=O)NC3CC3)c2)cn1 (centres unmarked) [I-T3-181] | 2.7 | 100 | 100 | – | – |
| CCS(=O)(=O)c1cc(C(F)(F)F)cc(Cl)c1-n1cc(-c2ccc(Cl)c(C(=O)NC3CC3)c2)cn1 [I-T3-178] | 3.2 | 100 | 100 | – | – |
| Cc1ccc(C(=O)NC2CC2)cc1-c1cnn(-c2c(C)cc(C(F)(C(F)(F)F)C(F)(F)F)cc2C)c1 [I-T3-16] | – | – | – | – | logP^a) [1]: 4.4; logP^a) [1, 2]: 4.4; efficacy (kill) (Ctenocephalides felis): 80% |
